How the values were obtained:
[1] = test system: H2030 solid tumor spheroids; assay: Spheroid proliferation assay, H2030; assay type: cell-based; settings: for spheroid growth, combination treatment: 96 h
Description: Non Small Cell Lung Cancer (NSCLC) cell lines H358 (catalog #CRL-5807) and H2030 (catalog #CRL-5914), and fibrosarcoma line HT-1080 (catalog […]) were obtained from the American Type Culture Collect (ATTC, Manassas, VA). Cells were grown in RPMI-1640 medium supplemented with 10% heat-inactivated fetal bovine serum and 1% Penicillin/Streptomycin/L-Glutamine (Invitrogen, Carlsbad, CA) at 37° C., 5% CO2, and 95% humidity and maintained at 50-80% confluency until use. 500-1000 cells were plated in 96-well ultra-low attachment plates (Corning, Glendale, AZ) with complete growth media at 80 μL/well and incubated overnight at 37° C., 5% CO2, and 95% humidity to form spheroids. The next day, serial dilutions of test compounds were prepared in complete growth media and 20 μL/well media containing compound titers was added to spheroids in triplicate. […] At the end of the incubation, spheroids were lysed with 100 μL/well CellTiter-Glo 3D Viability Assay (Promega, Madison, WI) and luminescence was detected using Synergy2 or equivalent reader (Biotek, Winooski, VT). Data was analyzed using GraphPad Prism software (GraphPad, San Diego, CA) to calculate IC50 values.

[2] = biological target: PERK oligomers (HEK-293 cells) (Homo sapiens (Human), UniProt Q9NZJ5); assay: Detection of PERK oligomerization using NanoBRET; assay type: cell-based; settings: HEK-293, 4 h, FIG. 2; read-out: stimulation of the formation of PERK oligomers EC50
Sequence of PERK oligomers (HEK-293 cells) (Q9NZJ5 30-1116): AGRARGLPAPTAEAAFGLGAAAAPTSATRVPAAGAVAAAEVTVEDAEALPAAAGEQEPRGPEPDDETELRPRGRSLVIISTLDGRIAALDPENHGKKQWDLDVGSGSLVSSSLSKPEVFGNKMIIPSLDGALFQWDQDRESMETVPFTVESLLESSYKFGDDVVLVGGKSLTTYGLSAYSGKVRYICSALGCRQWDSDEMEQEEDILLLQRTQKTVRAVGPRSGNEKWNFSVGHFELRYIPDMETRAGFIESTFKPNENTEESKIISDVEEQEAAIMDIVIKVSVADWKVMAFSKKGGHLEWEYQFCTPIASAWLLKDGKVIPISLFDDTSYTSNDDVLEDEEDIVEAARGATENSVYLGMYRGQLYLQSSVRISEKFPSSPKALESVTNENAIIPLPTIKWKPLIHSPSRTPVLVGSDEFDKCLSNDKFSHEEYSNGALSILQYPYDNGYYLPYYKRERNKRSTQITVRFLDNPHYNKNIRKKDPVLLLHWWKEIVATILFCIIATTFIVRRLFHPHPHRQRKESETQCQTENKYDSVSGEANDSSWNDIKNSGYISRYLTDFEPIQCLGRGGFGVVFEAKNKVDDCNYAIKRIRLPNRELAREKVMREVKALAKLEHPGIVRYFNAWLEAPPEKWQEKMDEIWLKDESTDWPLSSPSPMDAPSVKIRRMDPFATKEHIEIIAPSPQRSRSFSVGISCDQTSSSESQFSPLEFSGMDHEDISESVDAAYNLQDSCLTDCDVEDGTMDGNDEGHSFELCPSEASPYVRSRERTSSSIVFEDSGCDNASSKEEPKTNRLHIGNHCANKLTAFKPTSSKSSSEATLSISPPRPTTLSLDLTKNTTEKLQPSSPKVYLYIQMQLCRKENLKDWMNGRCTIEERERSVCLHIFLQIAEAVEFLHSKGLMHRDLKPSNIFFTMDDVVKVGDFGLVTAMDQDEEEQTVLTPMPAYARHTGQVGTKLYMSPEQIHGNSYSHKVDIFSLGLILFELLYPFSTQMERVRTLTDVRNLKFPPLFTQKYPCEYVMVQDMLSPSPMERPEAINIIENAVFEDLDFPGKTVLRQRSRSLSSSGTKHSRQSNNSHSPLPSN
Sequence of PERK oligomers (HEK-293 cells) (Q9NZJ5 30-1116): as above
Description: Constructs for BRET were built using the NanoBRET™ Flexi® PPI Starter System (Promega, Madison, WI). The full-length PERK ORF was obtained from Genscript (Piscataway, NJ). HEK-293 cells (catalog #CRL-1573) were obtained from the American Type Culture Collection (ATTC, Manassas, VA). Cells were grown in MEM medium supplemented with 10% heat-inactivated fetal bovine serum (Invitrogen, Carlsbad, CA) and 1% Penicillin/Streptomycin/L-Glutamine at 37° C., 5% CO2, and 95% humidity. For BRET assays, cells were seeded at a density of 40,000 cells/mL in culture medium in 6-well plates and allowed to attach and recover. Cells were transfected with C-terminally tagged PERK-NLuc and C-terminally tagged PERK-Halo using Lipofectamine LTX (Thermo, Waltham, MA) and allowed to express proteins overnight at 37° C., 5% CO2, and 95% humidity. Cells were then detached from culture dishes using 0.05% trypsin-EDTA, collected, and diluted in assay medium consisting of Opti-MEM® I Reduced Serum Medium supplemented with 4% FBS (Thermo) to 22,000 cells/mL. Cells were dispensed into 96-well cell culture plates and HaloTag® NanoBRET™ 618 Ligand (Promega) was added to a final concentration of 100 nM. […] Donor ([…]) and acceptor (618) emissions were measured on a Synergy Neo2 Multi-Mode Reader (BioTek, Winooski, VT) within 10 min of substrate addition. […]

PERK enzyme = PERK enzyme (Homo sapiens (Human), UniProt Q9NZJ5); assay: Biochemical assay for PERK (coupled pyruvate kinase/lactate dehydrogenase); settings: 1 mM ATP
Sequence of PERK enzyme (Q9NZJ5 other isoform, or with tags, fused parts or gaps): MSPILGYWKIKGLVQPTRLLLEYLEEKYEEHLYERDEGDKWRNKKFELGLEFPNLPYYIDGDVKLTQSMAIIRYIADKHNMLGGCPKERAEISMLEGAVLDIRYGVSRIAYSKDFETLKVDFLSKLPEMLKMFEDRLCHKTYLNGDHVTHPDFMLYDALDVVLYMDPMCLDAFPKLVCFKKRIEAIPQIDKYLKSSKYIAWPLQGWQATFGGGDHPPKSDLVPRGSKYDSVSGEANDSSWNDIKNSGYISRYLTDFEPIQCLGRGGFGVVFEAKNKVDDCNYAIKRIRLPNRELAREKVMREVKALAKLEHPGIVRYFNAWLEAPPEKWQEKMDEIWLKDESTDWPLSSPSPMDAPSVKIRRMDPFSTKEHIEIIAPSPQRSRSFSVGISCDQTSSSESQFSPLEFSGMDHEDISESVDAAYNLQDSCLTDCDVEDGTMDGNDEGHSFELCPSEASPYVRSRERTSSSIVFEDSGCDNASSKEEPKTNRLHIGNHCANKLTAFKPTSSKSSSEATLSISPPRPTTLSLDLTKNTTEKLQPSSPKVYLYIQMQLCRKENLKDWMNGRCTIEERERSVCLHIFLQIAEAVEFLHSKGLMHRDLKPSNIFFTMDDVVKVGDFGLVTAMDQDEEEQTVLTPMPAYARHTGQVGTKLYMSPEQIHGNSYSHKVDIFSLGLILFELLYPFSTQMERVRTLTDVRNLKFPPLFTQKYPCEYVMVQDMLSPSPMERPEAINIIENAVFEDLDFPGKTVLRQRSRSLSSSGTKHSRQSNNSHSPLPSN
Description: Activity of PERK kinase was determined spectroscopically using a coupled pyruvate kinase/lactate dehydrogenase assay that continuously monitors the ATP hydrolysis-dependent oxidation of NADH (e.g., Schindler et al. Science (2000) 289: 1938-1942). Assays were conducted in 384-well plates ([…] final volume) using 10 nM PERK (from Beryllium), 0.25 mg/mL Myelin Basic Protein substrate, 1.5 units pyruvate kinase, 2.1 units lactate dehydrogenase, 1 mM phosphoenol pyruvate, 0.28 mM NADH and 1 mM ATP in assay buffer (100 mM Tris, pH 7.5, 15 mM MgCl2, 0.5 mM DTT, 0.004% (w/v) BSA, and 0.004% Triton X-100). Inhibition of PERK was measured by adding serial diluted test compound (final assay concentration of 1% DMSO). A decrease in absorption at 340 nm was monitored continuously for 6 hours at 30° C. on a multi-mode microplate reader (BioTek). The reaction rate was calculated using the 2-3 h time frame. The reaction rate at each concentration of compound was converted to percent inhibition using controls (i.e., reaction with no test compound and reaction with a known inhibitor) and IC50 values were calculated using software routines in Prism (GraphPad software).

## Cn1cc(-c2cccc(NS(=O)(=O)c3cc(Cl)cc(CO)c3Cl)c2F)c2c(N)ncnc21 [Example 2, N-(3-(4-amino-7-methyl-7H-pyrrolo[2,3-d]pyrimidin-5-yl)-2-fluorophenyl)-2,5-dichloro-3-(hydroxymethyl)benzenesulfonamide]
[1]; 5 days, FIG. 11A
  cell regression, single agent: 50%
[1]; with 3.3 nM sotorasib, FIG. 12A
  spheroid growth, combination treatment: greater spheroid regression compared to either single agent
[1]; with 3.7 nM trametinib, FIG. 12C
  spheroid growth, combination treatment: greater spheroid regression compared to either single agent
[2]
  EC50: 1.6 nM
PERK enzyme
  IC50: ≤ 100 nM

Reference: patent US20230382915A1, “GCN2 AND PERK KINASE INHIBITORS AND METHODS OF USE THEREOF” (Deciphera Pharmaceuticals, LLC, priority 2021, published 2023)
